Laboratory results reported in patent publication US20070128217A1 (priority 2003, published 2007).

What was measured:
[1] = system: antibodies in sera from SARS patients (sera 1a, 1b, 2, 6, 37, 62, London, SARS-yellow, SARS-green); type: binding, human; design: Binding of serum 6 to linear peptides of protein X1 of SARS-CoV Urbani / Binding of serum 37 to linear peptides of protein X1 of SARS-CoV Urbani / Binding of serum 6 to looped/cyclic peptide (PEPSCAN-ELISA) / Binding of serum 37 to looped/cyclic peptide (PEPSCAN-ELISA) / Binding of serum 37 to looped/cyclic peptides of protein X1 of SARS-CoV Urbani / Binding of serum 6 to linear peptides of protein X2 / Binding of serum 37 to linear peptides of protein X2 / Binding of serum 37 to looped/cyclic peptides of protein X2 of SARS-CoV Urbani / Binding of serum 6 to linear peptides of protein M of SARS-CoV Urbani / Binding of serum 37 to linear peptides of protein M of SARS-CoV Urbani / Binding of serum 6 to looped/cyclic peptides of protein M of SARS-CoV Urbani / Binding of serum 37 to looped/cyclic peptides of protein M of SARS-CoV Urbani / Binding of serum 6 to linear peptides of protein X3 of SARS-CoV Urbani / Binding of serum 37 to linear peptides of protein X3 of SARS-CoV Urbani / Binding of serum 37 to looped/cyclic peptides of protein X3 of SARS-CoV Urbani / Binding of serum 6 to linear peptides of protein X4 of SARS-CoV Urbani / Binding of serum 37 to linear peptides of protein X4 of SARS-CoV Urbani / Binding of serum 37 to looped/cyclic peptides of protein X4 of SARS-CoV Urbani / Binding of serum 6 to linear peptides of protein X5 of SARS-CoV Urbani / Binding of serum 37 to linear peptides of protein X5 of SARS-CoV Urbani / Binding of serum 37 to looped/cyclic peptides of protein X5 of SARS-CoV Urbani / Binding of serum 6 to linear peptides of protein N of SARS-CoV Urbani / Binding of serum 37 to linear peptides of protein N of SARS-CoV Urbani / Binding of serum 6 to linear peptide (PEPSCAN-ELISA) / Binding of serum 1a to looped/cyclic peptides of protein N of SARS-CoV Urbani / Binding of serum 1b to looped/cyclic peptides of protein N of SARS-CoV Urbani / Binding of serum 2 to looped/cyclic peptides of protein N of SARS-CoV Urbani / Binding of serum 6 to looped/cyclic peptides of protein N of SARS-CoV Urbani / Binding of serum 37 to looped/cyclic peptides of protein N of SARS-CoV Urbani / Binding of serum 62 to looped/cyclic peptides of protein N of SARS-CoV Urbani / Binding of serum London to looped/cyclic peptides of protein N of SARS-CoV Urbani / Binding of serum SARS-green to looped/cyclic peptides of protein N of SARS-CoV Urbani: unit not given here
[2] = system: control sera (pooled serum of ten healthy LUMC hospital workers; commercial negative donor pooled serum from the Dutch bloodbank); type: binding, human; design: Binding of Control serum LUMC to linear peptides / Binding of Control serum Blood-bank to linear peptides / Binding of Control serum LUMC to looped peptides / Binding of Control Serum Blood-Bank to Looped peptides / Binding of Control serum LUMC to linear peptides of the protein M of SARS-CoV Urbani / Binding of Control serum Blood-bank to linear peptides of the protein M of SARS-CoV Urbani / Binding of Control serum LUMC to looped peptides of the protein M of SARS-CoV Urbani / Binding of Control Serum Blood-Bank to Looped peptides of the protein M of SARS-CoV Urbani: unit not given here
[3] = system: rabbit serum obtained by immunizing a rabbit with the SARS-CoV strain Frankfurt 1; type: binding; design: Binding of a rabbit serum to linear peptides / Binding of a rabbit serum to looped peptides / Rabbit serum linear peptides / Rabbit serum looped peptides / Binding of a rabbit serum to linear peptides of protein N of SARS-CoV Urbani (Rabbit serum linear peptides) / Binding of a rabbit serum to looped/cyclic peptides of protein N of SARS-CoV Urbani (Rabbit serum looped peptides): unit not given here
[4] = system: recombinant human anti-SARS-CoV antibody 03-018; type: binding; design: Binding of antibody 03-018 to linear peptides of the N protein of SARS-CoV Urbani / Binding of antibody 03-018 to looped/cyclic peptides of the N protein of SARS-CoV Urbani: unit not given here

IGTRNPNNNAATVLQ
Binding of serum 1a to linear peptides of protein N of SARS-CoV Urbani [1]: 0.3 | Binding of serum 1a to looped/cyclic peptides of protein N of SARS-CoV Urbani [1]: 0.4 | Binding of serum 1b to linear peptides of protein N of SARS-CoV Urbani [1]: 0.1 | Binding of serum 1b to looped/cyclic peptides of protein N of SARS-CoV Urbani [1]: 0.3 | Binding of serum 2 to linear peptides of protein N of SARS-CoV Urbani [1]: 0.4 | Binding of serum 2 to looped/cyclic peptides of protein N of SARS-CoV Urbani [1]: 0.7 | Binding of serum 6 to linear peptides of protein N of SARS-CoV Urbani [1]: 0.2 | Binding of serum 6 to looped/cyclic peptides of protein N of SARS-CoV Urbani [1]: 0.4 | Binding of serum 37 to linear peptides of protein N of SARS-CoV Urbani [1]: 0.7 | Binding of serum 37 to looped/cyclic peptides of protein N of SARS-CoV Urbani [1]: 0.9 | Binding of serum 62 to linear peptides of protein N of SARS-CoV Urbani [1]: 0.8 | Binding of serum 62 to looped/cyclic peptides of protein N of SARS-CoV Urbani [1]: 0.8 | Binding of serum London to linear peptides of protein N of SARS-CoV Urbani [1]: 0.5 | Binding of serum London to looped/cyclic peptides of protein N of SARS-CoV Urbani [1]: 0.6 | Binding of serum SARS-green to linear peptides of protein N of SARS-CoV Urbani [1]: 0.5 | Binding of serum SARS-green to looped/cyclic peptides of protein N of SARS-CoV Urbani [1]: 0.7 | Binding of serum SARS-yellow to linear peptides of protein N of SARS-CoV Urbani [1]: 0.6 | Binding of serum SARS-yellow to looped/cyclic peptides of protein N of SARS-CoV Urbani [1]: 0.5 | Binding of Control Serum Blood-Bank to Looped peptides [2]: 0.9 | Binding of Control serum Blood-bank to linear peptides [2]: 0.8 | Binding of Control serum LUMC to linear peptides [2]: 0.9 | Binding of Control serum LUMC to looped peptides [2]: 0.8 | Binding of a rabbit serum to linear peptides of protein N of SARS-CoV Urbani (Rabbit serum linear peptides) [3]: 0.1 | Binding of a rabbit serum to looped/cyclic peptides of protein N of SARS-CoV Urbani (Rabbit serum looped peptides) [3]: 0.4 | Binding of antibody 03-018 to linear peptides of the N protein of SARS-CoV Urbani [4]: 0.1 | Binding of antibody 03-018 to looped/cyclic peptides of the N protein of SARS-CoV Urbani [4]: 0.3

IGYYRRATRRVRGGD
Binding of serum 1a to linear peptides of protein N of SARS-CoV Urbani [1]: 0.2 | Binding of serum 1a to looped/cyclic peptides of protein N of SARS-CoV Urbani [1]: 0.3 | Binding of serum 1b to linear peptides of protein N of SARS-CoV Urbani [1]: 0.1 | Binding of serum 1b to looped/cyclic peptides of protein N of SARS-CoV Urbani [1]: 0.2 | Binding of serum 2 to linear peptides of protein N of SARS-CoV Urbani [1]: 0.1 | Binding of serum 2 to looped/cyclic peptides of protein N of SARS-CoV Urbani [1]: 0.5 | Binding of serum 6 to linear peptides of protein N of SARS-CoV Urbani [1]: 0.2 | Binding of serum 6 to looped/cyclic peptides of protein N of SARS-CoV Urbani [1]: 0.3 | Binding of serum 37 to linear peptides of protein N of SARS-CoV Urbani [1]: 0.5 | Binding of serum 37 to looped/cyclic peptides of protein N of SARS-CoV Urbani [1]: 0.7 | Binding of serum 62 to linear peptides of protein N of SARS-CoV Urbani [1]: 0.4 | Binding of serum 62 to looped/cyclic peptides of protein N of SARS-CoV Urbani [1]: 0.6 | Binding of serum London to linear peptides of protein N of SARS-CoV Urbani [1]: 0.4 | Binding of serum London to looped/cyclic peptides of protein N of SARS-CoV Urbani [1]: 0.4 | Binding of serum SARS-green to linear peptides of protein N of SARS-CoV Urbani [1]: 0.2 | Binding of serum SARS-green to looped/cyclic peptides of protein N of SARS-CoV Urbani [1]: 0.3 | Binding of serum SARS-yellow to linear peptides of protein N of SARS-CoV Urbani [1]: 0.6 | Binding of serum SARS-yellow to looped/cyclic peptides of protein N of SARS-CoV Urbani [1]: 0.5 | Binding of Control Serum Blood-Bank to Looped peptides [2]: 0.7 | Binding of Control serum Blood-bank to linear peptides [2]: 0.7 | Binding of Control serum LUMC to linear peptides [2]: 0.5 | Binding of Control serum LUMC to looped peptides [2]: 0.7 | Recognition of the peptide by the rabbit serum [3]: recognized | Binding of antibody 03-018 to linear peptides of the N protein of SARS-CoV Urbani [4]: 0.1 | Binding of antibody 03-018 to looped/cyclic peptides of the N protein of SARS-CoV Urbani [4]: 0.2

ILLNKHIDAYKTFPP
Binding of serum 1a to linear peptides of protein N of SARS-CoV Urbani [1]: 0.2 | Binding of serum 1a to looped/cyclic peptides of protein N of SARS-CoV Urbani [1]: 0.4 | Binding of serum 1b to linear peptides of protein N of SARS-CoV Urbani [1]: 0.1 | Binding of serum 1b to looped/cyclic peptides of protein N of SARS-CoV Urbani [1]: 0.3 | Binding of serum 2 to linear peptides of protein N of SARS-CoV Urbani [1]: 0.2 | Binding of serum 2 to looped/cyclic peptides of protein N of SARS-CoV Urbani [1]: 0.5 | Binding of serum 6 to linear peptides of protein N of SARS-CoV Urbani [1]: 0.2 | Binding of serum 6 to looped/cyclic peptides of protein N of SARS-CoV Urbani [1]: 0.3 | Binding of serum 37 to linear peptides of protein N of SARS-CoV Urbani [1]: 0.7 | Binding of serum 37 to looped/cyclic peptides of protein N of SARS-CoV Urbani [1]: 0.7 | Binding of serum 62 to linear peptides of protein N of SARS-CoV Urbani [1]: 0.7 | Binding of serum 62 to looped/cyclic peptides of protein N of SARS-CoV Urbani [1]: 0.7 | Binding of serum London to linear peptides of protein N of SARS-CoV Urbani [1]: 0.5 | Binding of serum London to looped/cyclic peptides of protein N of SARS-CoV Urbani [1]: 0.5 | Binding of serum SARS-green to linear peptides of protein N of SARS-CoV Urbani [1]: 0.3 | Binding of serum SARS-green to looped/cyclic peptides of protein N of SARS-CoV Urbani [1]: 0.5 | Binding of serum SARS-yellow to linear peptides of protein N of SARS-CoV Urbani [1]: 0.5 | Binding of serum SARS-yellow to looped/cyclic peptides of protein N of SARS-CoV Urbani [1]: 0.7 | Control Serum Blood-Bank Looped peptides [2]: 0.6 | Control serum Blood-bank linear peptides [2]: 0.7 | Control serum LUMC linear peptides [2]: 0.7 | Control serum LUMC looped peptides [2]: 0.7 | Binding of a rabbit serum to linear peptides of protein N of SARS-CoV Urbani (Rabbit serum linear peptides) [3]: 0.2 | Binding of a rabbit serum to looped/cyclic peptides of protein N of SARS-CoV Urbani (Rabbit serum looped peptides) [3]: 0.6 | Binding of antibody 03-018 to linear peptides of the N protein of SARS-CoV Urbani [4]: 0.1 | Binding of antibody 03-018 to looped/cyclic peptides of the N protein of SARS-CoV Urbani [4]: 0.2
